Biological target: T1, Recombinant human cathepsin A (Homo sapiens, UniProt P10619)
T1 construct: Recombinant human cathepsin A (residues 29-480, with a C-terminal 10-His tag); 10-His (C); purchased R&D Systems 1049-SE
T1 sequence (P10619 29-312 limits assumed): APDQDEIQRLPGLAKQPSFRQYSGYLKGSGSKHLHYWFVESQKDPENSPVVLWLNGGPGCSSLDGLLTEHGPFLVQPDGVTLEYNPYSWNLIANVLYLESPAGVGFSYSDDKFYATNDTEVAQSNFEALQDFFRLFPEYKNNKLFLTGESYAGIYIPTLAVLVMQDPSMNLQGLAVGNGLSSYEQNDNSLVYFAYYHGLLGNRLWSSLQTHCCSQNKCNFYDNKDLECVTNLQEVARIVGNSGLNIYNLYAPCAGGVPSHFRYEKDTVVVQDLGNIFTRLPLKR
T1 sequence (P10619 327-480 limits assumed): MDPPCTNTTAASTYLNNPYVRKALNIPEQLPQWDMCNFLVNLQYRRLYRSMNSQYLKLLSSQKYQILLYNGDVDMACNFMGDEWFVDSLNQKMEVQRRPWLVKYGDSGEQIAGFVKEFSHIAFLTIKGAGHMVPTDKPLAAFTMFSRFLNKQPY
Assay: Cathepsin A inhibitory activity
Format: biochemical
Conditions: read-out: Activity (2): Cathepsin A inhibitory activity (IC50 class)
Procedure, shortened: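 Read-out was microfluidic separation of cleaved vs. uncleaved Bodipy FL-bradykinin (2 μM), giving turnover, % inhibition and IC50. Compound and 833 ng/ml enzyme met for 15 min RT in pH 5.5 MES/DTT before substrate (15 min RT). The 29-480 His-tagged human enzyme was first activated by cathepsin L, then E-64 (10 μM).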

Structure (SMILES)	IC50 [nM]
COc1ccccc1[C@H](CC(=O)O)NC(=O)c1cc(OC[C@@](C)(O)C(C)C)n(-c2ccccc2F)n1 [Example 783, (S)-3-{[1-(2-Fluoro-phenyl)-5-((S)-2-hydroxy-2,3-dimethyl-butoxy)-1H-pyrazole-3-carbonyl]-amino}-3-(2-methoxy-phenyl)-propionic acid]	< 100
CC(C)[C@](C)(O)COc1cc(C(=O)N[C@@H](CC(=O)O)c2ccccc2C(F)(F)F)nn1-c1ccccc1F [Example 784, (S)-3-{[1-(2-Fluoro-phenyl)-5-((S)-2-hydroxy-2,3-dimethyl-butoxy)-1H-pyrazole-3-carbonyl]-amino}-3-(2-trifluoromethyl-phenyl)-propionic acid]	< 100
CC(C)C(C)(O)COc1cc(C(=O)N[C@@H](CC(=O)O)c2cccc(Cl)c2)nn1-c1ccccc1F (stereo partly drawn) [Example 785, (S)-3-(3-Chloro-phenyl)-3-{[1-(2-fluoro-phenyl)-5-(2-hydroxy-2,3-dimethyl-butoxy)-1H-pyrazole-3-carbonyl]-amino}-propionic acid]	< 100
CC(C)[C@@](C)(O)COc1cc(C(=O)NC(CC(=O)O)C2CCCCC2)nn1-c1ccccc1F (stereo partly drawn) [Example 786, 3-Cyclohexyl-3-{[1-(2-fluoro-phenyl)-5-((R)-2-hydroxy-2,3-dimethyl-butoxy)-1H-pyrazole-3-carbonyl]-amino}-propionic acid]	< 100
Cc1ccc([C@H](CC(=O)O)NC(=O)c2cc(OCC(C)(O)C(C)C)n(-c3ccccc3F)n2)cc1 (stereo partly drawn) [Example 787, (S)-3-{[1-(2-Fluoro-phenyl)-5-(2-hydroxy-2,3-dimethyl-butoxy)-1H-pyrazole-3-carbonyl]-amino}-3-p-tolyl-propionic acid]	< 100
Cc1ccc([C@H](CC(=O)O)NC(=O)c2cc(OC[C@H](O)C(C)(C)C)n(-c3ccccc3F)n2)cc1 [Example 788, (S)-3-{[1-(2-Fluoro-phenyl)-5-((R)-2-hydroxy-3,3-dimethyl-butoxy)-1H-pyrazole-3-carbonyl]-amino}-3-p-tolyl-propionic acid]	< 100
CC(C)(C)[C@](C)(O)COc1cc(C(=O)N[C@@H](CC(=O)O)c2ccccc2Cl)nn1-c1ccccc1F [Example 789, (S)-3-(2-Chloro-phenyl)-3-{[1-(2-fluoro-phenyl)-5-((S)-2-hydroxy-2,3,3-trimethyl-butoxy)-1H-pyrazole-3-carbonyl]-amino}-propionic acid]	< 100
CC(C)(C)[C@@](C)(O)COc1cc(C(=O)N[C@@H](CC(=O)O)c2ccccc2Cl)nn1-c1ccccc1F [Example 790, (S)-3-(2-Chloro-phenyl)-3-{[1-(2-fluoro-phenyl)-5-((R)-2-hydroxy-2,3,3-trimethyl-butoxy)-1H-pyrazole-3-carbonyl]-amino}-propionic acid]	< 100
Cc1ccc([C@H](CC(=O)O)NC(=O)c2cc(OCC(=O)C(C)(C)C)n(-c3ccccc3F)n2)cc1 [Example 791, (S)-3-{[5-(3,3-Dimethyl-2-oxo-butoxy)-1-(2-fluoro-phenyl)-1H-pyrazole-3-carbonyl]-amino}-3-p-tolyl-propionic acid]	< 100
Cc1cccc([C@H](CC(=O)O)NC(=O)c2cc(OC[C@@H](O)C(C)(C)C)n(-c3ccccc3F)n2)c1 [Example 792, (S)-3-{[1-(2-Fluoro-phenyl)-5-((S)-2-hydroxy-3,3-dimethyl-butoxy)-1H-pyrazole-3-carbonyl]-amino}-3-m-tolyl-propionic acid]	< 100
CC(C)(C)[C@@H](O)COc1cc(C(=O)N[C@@H](CC(=O)O)c2ccccc2Cl)nn1-c1ccccc1F [Example 793, (S)-3-(2-Chloro-phenyl)-3-{[1-(2-fluoro-phenyl)-5-((R)-2-hydroxy-3,3-dimethyl-butoxy)-1H-pyrazole-3-carbonyl]-amino}-propionic acid]	< 100

Same assay, conditions: read-out: Activity (2): Cathepsin A inhibitory activity, IC50 class

Structure (SMILES)	IC50 [nM]
CC(C)(C)[C@H](O)COc1cc(C(=O)N[C@@H](CC(=O)O)c2ccc(Cl)cc2)nn1-c1ccccc1F [Example 794, (S)-3-(4-Chloro-phenyl)-3-{[1-(2-fluoro-phenyl)-5-((S)-2-hydroxy-3,3-dimethyl-butoxy)-1H-pyrazole-3-carbonyl]-amino}-propionic acid]	< 100
CC(C)(C)[C@@H](O)COc1cc(C(=O)N[C@@H](CC(=O)O)c2cccc(Cl)c2)nn1-c1ccccc1F [Example 795, (S)-3-(3-Chloro-phenyl)-3-{[1-(2-fluoro-phenyl)-5-((R)-2-hydroxy-3,3-dimethyl-butoxy)-1H-pyrazole-3-carbonyl]-amino}-propionic acid]	< 100
CC(C)(C)C(=O)COc1cc(C(=O)N[C@@H](CC(=O)O)c2cccc(Cl)c2)nn1-c1ccccc1F [Example 796, (S)-3-(3-Chloro-phenyl)-3-{[5-(3,3-dimethyl-2-oxo-butoxy)-1-(2-fluoro-phenyl)-1H-pyrazole-3-carbonyl]-amino}-propionic acid]	< 100
CC(C)(C)[C@H](O)COc1cc(C(=O)N[C@@H](CC(=O)O)c2ccccc2Cl)nn1-c1ccccc1F [Example 797, (S)-3-(2-Chloro-phenyl)-3-{[1-(2-fluoro-phenyl)-5-((S)-2-hydroxy-3,3-dimethyl-butoxy)-1H-pyrazole-3-carbonyl]-amino}-propionic acid]	< 100
CC(C)(C)[C@](C)(O)COc1cc(C(=O)N[C@@H](CC(=O)O)c2cccc(Cl)c2)nn1-c1ccccc1F [Example 798, (S)-3-(3-Chloro-phenyl)-3-{[1-(2-fluoro-phenyl)-5-((S)-2-hydroxy-2,3,3-trimethyl-butoxy)-1H-pyrazole-3-carbonyl]-amino}-propionic acid]	< 100
CC(C)(C)[C@](C)(O)COc1cc(C(=O)N[C@@H](CC(=O)O)c2ccccc2C(F)(F)F)nn1-c1ccccc1F [Example 799, (S)-3-{[1-(2-Fluoro-phenyl)-5-((S)-2-hydroxy-2,3,3-trimethyl-butoxy)-1H-pyrazole-3-carbonyl]-amino}-3-(2-trifluoromethyl-phenyl)-propionic acid]	< 100
CC(C)(C)[C@H](O)COc1cc(C(=O)N[C@@H](CC(=O)O)c2cccc(Cl)c2Cl)nn1-c1ccccc1F [Example 800, (S)-3-(2,3-Dichloro-phenyl)-3-{[1-(2-fluoro-phenyl)-5-((S)-2-hydroxy-3,3-dimethyl-butoxy)-1H-pyrazole-3-carbonyl]-amino}-propionic acid]	< 100
Cc1ccc([C@H](CC(=O)O)NC(=O)c2cc(OC[C@@H](O)C(C)(C)C)n(-c3ccccc3F)n2)cc1 [Example 801, (S)-3-{[1-(2-Fluoro-phenyl)-5-((S)-2-hydroxy-3,3-dimethyl-butoxy)-1H-pyrazole-3-carbonyl]-amino}-3-p-tolyl-propionic acid]	< 100
COc1cccc([C@H](CC(=O)O)NC(=O)c2cc(OCC(C)(O)C(C)C)n(-c3ccccc3F)n2)c1 (stereo partly drawn) [Example 802, (S)-3-{[1-(2-Fluoro-phenyl)-5-(2-hydroxy-2,3-dimethyl-butoxy)-1H-pyrazole-3-carbonyl]-amino}-3-(3-methoxy-phenyl)-propionic acid]	< 100
CC(C)[C@](C)(O)COc1cc(C(=O)NC(CC(=O)O)C2CCCCC2)nn1-c1ccccc1F (stereo partly drawn) [Example 803, 3-Cyclohexyl-3-{[1-(2-fluoro-phenyl)-5-((S)-2-hydroxy-2,3-dimethyl-butoxy)-1H-pyrazole-3-carbonyl]-amino}-propionic acid]	< 100
Cc1cccc([C@H](CC(=O)O)NC(=O)c2cc(OC[C@H](O)C(C)(C)C)n(-c3ccccc3F)n2)c1 [Example 804, (S)-3-{[1-(2-Fluoro-phenyl)-5-((R)-2-hydroxy-3,3-dimethyl-butoxy)-1H-pyrazole-3-carbonyl]-amino}-3-m-tolyl-propionic acid]	< 100
Cc1cccc([C@H](CC(=O)O)NC(=O)c2cc(OCC(=O)C(C)(C)C)n(-c3ccccc3F)n2)c1 [Example 805, (S)-3-{[5-(3,3-Dimethyl-2-oxo-butoxy)-1-(2-fluoro-phenyl)-1H-pyrazole-3-carbonyl]-amino}-3-m-tolyl-propionic acid]	< 100
COc1cccc([C@H](CC(=O)O)NC(=O)c2cc(OC[C@](C)(O)C(C)C)n(-c3ccccc3F)n2)c1 [Example 806, (S)-3-{[1-(2-Fluoro-phenyl)-5-((R)-2-hydroxy-2,3-dimethyl-butoxy)-1H-pyrazole-3-carbonyl]-amino}-3-(3-methoxy-phenyl)-propionic acid]	< 100
CC(C)C(C)(O)COc1cc(C(=O)N[C@@H](CC(=O)O)c2cccc(C#N)c2)nn1-c1ccccc1F (stereo partly drawn) [Example 807, (S)-3-(3-Cyano-phenyl)-3-{[1-(2-fluoro-phenyl)-5-(2-hydroxy-2,3-dimethyl-butoxy)-1H-pyrazole-3-carbonyl]-amino}-propionic acid]	< 100
CC(C)C(C)(O)COc1cc(C(=O)N[C@@H](CC(=O)O)c2c(F)cccc2F)nn1-c1ccccc1F (stereo partly drawn) [Example 808, (S)-3-(2,6-Difluoro-phenyl)-3-{[1-(2-fluoro-phenyl)-5-(2-hydroxy-2,3-dimethyl-butoxy)-1H-pyrazole-3-carbonyl]-amino}-propionic acid]	< 100

Same assay, conditions: recombinant human cathepsin A 833 ng/ml, Bodipy FL-labeled bradykinin 2 μM, pH 5.5; read-out: CATH-A IC50

Structure (SMILES)	IC50 [nM]
CC(C)[C@](C)(O)COc1cc(C(=O)NC(CC(=O)O)C2CCCCC2)nn1-c1ccccc1F (stereo partly drawn) [Example 803, 3-Cyclohexyl-3-{[1-(2-fluoro-phenyl)-5-((S)-2-hydroxy-2,3-dimethyl-butoxy)-1H-pyrazole-3-carbonyl]-amino}-propionic acid]	26.7

Reference: patent US8664257B2, “Oxygen-substituted 3-heteroaroylamino-propionic acid derivatives and their use as pharmaceuticals” (Sanofi, priority 2010, dated 2014)
